# Test results published in US20200208128A1, “METHODS OF TREATING LIVER DISEASES” (CAMP4 THERAPEUTICS CORPORATION, priority 2017, published 2020).
# “Also recorded” adds a separate entry of the source.
# T1: FLT3 (Homo sapiens, UniProt P36888)
# T1 construct: IC50; other: FLT3
# T1 sequence (P36888 1-993 D835Y): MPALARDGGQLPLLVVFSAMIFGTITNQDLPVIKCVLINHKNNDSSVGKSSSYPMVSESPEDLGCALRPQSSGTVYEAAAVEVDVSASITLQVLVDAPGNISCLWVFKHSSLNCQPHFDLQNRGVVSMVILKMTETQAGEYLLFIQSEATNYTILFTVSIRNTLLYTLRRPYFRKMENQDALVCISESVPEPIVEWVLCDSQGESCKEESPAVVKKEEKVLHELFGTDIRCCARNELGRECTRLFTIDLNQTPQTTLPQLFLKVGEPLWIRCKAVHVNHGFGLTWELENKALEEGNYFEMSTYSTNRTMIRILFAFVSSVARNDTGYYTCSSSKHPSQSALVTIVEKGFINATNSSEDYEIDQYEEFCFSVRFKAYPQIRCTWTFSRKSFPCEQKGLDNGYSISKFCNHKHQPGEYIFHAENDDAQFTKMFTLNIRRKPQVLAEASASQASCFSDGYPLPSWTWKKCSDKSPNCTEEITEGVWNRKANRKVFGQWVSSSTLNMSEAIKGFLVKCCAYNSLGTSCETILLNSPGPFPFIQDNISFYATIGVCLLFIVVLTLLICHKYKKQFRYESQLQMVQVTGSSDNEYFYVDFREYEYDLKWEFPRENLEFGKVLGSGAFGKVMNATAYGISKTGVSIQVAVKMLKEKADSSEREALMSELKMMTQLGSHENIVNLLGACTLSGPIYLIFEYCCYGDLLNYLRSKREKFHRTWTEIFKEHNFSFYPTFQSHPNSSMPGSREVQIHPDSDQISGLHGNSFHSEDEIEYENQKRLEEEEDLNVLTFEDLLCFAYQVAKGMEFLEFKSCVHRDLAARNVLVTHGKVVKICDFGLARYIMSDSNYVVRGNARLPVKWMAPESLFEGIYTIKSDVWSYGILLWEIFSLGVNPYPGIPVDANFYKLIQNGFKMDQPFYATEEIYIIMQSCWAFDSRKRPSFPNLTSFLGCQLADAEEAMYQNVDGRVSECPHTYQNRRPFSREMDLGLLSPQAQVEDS
# Legend:
# PNPLA3 [1] = assay: qRT-PCR validation of PNPLA3 expression in primary human hepatocytes; type: cell-based
# Procedure: Cryopreserved hepatocytes were cultured in plating media for 16 hours, transferred to maintenance media for 4 hours. Cultured on serum-free media for 2 hours, then a compound was added. The hepatocytes were maintained on the serum-free media for 16 hours prior to gene expression analysis. Primary Human Hepatocytes were stored in the vapor phase of a liquid nitrogen freezer (about −130° C.).
# (§6) Human hepatocytes cultured as described above were plated in 24-well format, adding 375,000 cells per well in a volume of 500 ul plating medium. Four hours before treatment, cells were washed with PBS and the medium was changed to either: fresh maintenance medium (complete) or modified maintenance medium.
# Compound stocks were prepared at 1000× final concentration and added in a 2-step dilution to the medium to reduce risk of a compound precipitating out of solution when added to the cells, and to ensure reasonable pipetting volumes. One at a time, each compound was first diluted 10-fold in warm (about 37° C.) modified maintenance medium (initial dilution=ID), mixed by vortexing, and the ID was diluted 100-fold into the cell culture (e.g. 5.1 μl into 1 well of a 24-well plate containing 0.5 mL medium). The plate was mixed by carefully swirling and after all wells were treated and returned to the incubator overnight. If desired, separate plates/wells were treated with vehicle-only controls and/or positive controls. If using multi-well plates, controls were included on each plate.
# Samples were amplified using the following Taqman probes from ThermoFisher for each target: Hs01552217_m1 (human PNPLA3).
# Analysis of the fold changes in expression as measured by qRT-PCR were performed using the technique below. The control was DMSO, and the treatment was the selected compound (CPD). The internal control was GAPDH or B-Actin (or otherwise indicated), and the gene of interest is the target. First, the averages of the 4 conditions were calculated for normalization: DMSO:GAPDH, DMSO:Target, CPD: GAPDH, and CPD:Target. Next, the ΔCT of both control and treatment were calculated to normalize to internal control (GAPDH) using (DMSO:Target)−(DMSO:GAPDH)=ΔCT control and (CPD:Target)−(CPD: GAPDH)=ΔCT experimental. Then, the ΔΔCT was calculated by ΔCT experimental−ΔCT control. The Expression Fold Change (or Relative Quantification, abbreviated as RQ) was calculated by 2−(ΔΔCT) (2-fold expression change was shown by RNA-Seq results provided herein).
# Candidate compounds were subjected to validation with qRT-PCR in human hepatocytes. qRT-PCR was performed on samples of primary human hepatocytes from a second donor treated with the candidate compounds. Compounds were tested at concentrations ranging from 0.01 μM to 50 μM, with the majority tested at 10 μM.
# PNPLA3 [2] = assay: qRT-PCR of PNPLA3 mRNA in hepatic stellate cells; type: cell-based, human; conditions: for Effect on PNPLA3 mRNA levels in stellate cells: serial dilutions; for Relative PNPLA3 mRNA levels RQ: fold change vs DMSO
# Procedure: (§1) Human Primary Stellate cells (HSC) (ScienceCell Cat #5300) were originally isolated from the liver of a donor. Cells were plated in Stellate Cell Medium (SteCM) (ScienCell Cat #5301) on black clear bottom plates (GREINER BIO-ONE:82050-730) coated with 2 μg/cm^2 PolyLLysine (PLL) (ScienceCell Cat #0413). Cells were plated at a density of 17000 cells/well in a 96-well plate and allowed to adhere overnight. The following day cell culture media was replenished with the indicated concentration(s) of compound for 18 hours. […] Medium was removed after 18 hours and cells were processed for further analysis, e.g. qRT-PCR.
# (§2) In some examples, RQ Min and RQ Max values are also reported. RQ Min and RQ Max are the minimum and maximum relative levels of gene expression in the test samples, respectively. They were calculated using the confidence level set in the analysis settings and the confidence level was set to one standard deviation (SD). These values were calculated using standard deviation as follows: […].
# (§3) Candidate compounds were tested in stellate cells for their ability to modulate PNPLA3 and COL1A1. Stellate cells were treated with serial dilutions of the compounds, ranging from 0.1 μM to 100 μM. Changes in PNPLA3 (or COL1A1) mRNA levels in stellate cells were analyzed with qRT-PCR. Once compounds capable of downregulating PNPLA3 and/or COL1A1 were identified, additional compounds that are known to act in the same pathways were also tested. Transforming growth factor beta (TGF-beta) is known to induce fibrotic genes including COL1A1 in vitro, and was thus chosen as a positive control (i.e., positively regulate COL1A1 expression).
# COL1A1 [3] = assay: qRT-PCR of COL1A1 mRNA in hepatic stellate cells; type: cell-based, human; conditions: for Relative COLIA1 mRNA levels RQ: four technical replicates; for Effect on COL1A1 expression in stellate cells: serial dilutions; for Relative COL1A1 mRNA levels RQ: fold change vs DMSO
# Procedure: as §1, §2
# as §3, with “Stellate cells were treated with serial dilutions of the compounds, ranging from 0.1 μM to 100 μM.” left out
# [4] = target: stem cell growth factor receptor (SCFR or c-Kit) (Homo sapiens, UniProt P10721); conditions: cited from earlier work
# Sequence of stem cell growth factor receptor (SCFR or c-Kit) (P10721 whole entry D816H, form open): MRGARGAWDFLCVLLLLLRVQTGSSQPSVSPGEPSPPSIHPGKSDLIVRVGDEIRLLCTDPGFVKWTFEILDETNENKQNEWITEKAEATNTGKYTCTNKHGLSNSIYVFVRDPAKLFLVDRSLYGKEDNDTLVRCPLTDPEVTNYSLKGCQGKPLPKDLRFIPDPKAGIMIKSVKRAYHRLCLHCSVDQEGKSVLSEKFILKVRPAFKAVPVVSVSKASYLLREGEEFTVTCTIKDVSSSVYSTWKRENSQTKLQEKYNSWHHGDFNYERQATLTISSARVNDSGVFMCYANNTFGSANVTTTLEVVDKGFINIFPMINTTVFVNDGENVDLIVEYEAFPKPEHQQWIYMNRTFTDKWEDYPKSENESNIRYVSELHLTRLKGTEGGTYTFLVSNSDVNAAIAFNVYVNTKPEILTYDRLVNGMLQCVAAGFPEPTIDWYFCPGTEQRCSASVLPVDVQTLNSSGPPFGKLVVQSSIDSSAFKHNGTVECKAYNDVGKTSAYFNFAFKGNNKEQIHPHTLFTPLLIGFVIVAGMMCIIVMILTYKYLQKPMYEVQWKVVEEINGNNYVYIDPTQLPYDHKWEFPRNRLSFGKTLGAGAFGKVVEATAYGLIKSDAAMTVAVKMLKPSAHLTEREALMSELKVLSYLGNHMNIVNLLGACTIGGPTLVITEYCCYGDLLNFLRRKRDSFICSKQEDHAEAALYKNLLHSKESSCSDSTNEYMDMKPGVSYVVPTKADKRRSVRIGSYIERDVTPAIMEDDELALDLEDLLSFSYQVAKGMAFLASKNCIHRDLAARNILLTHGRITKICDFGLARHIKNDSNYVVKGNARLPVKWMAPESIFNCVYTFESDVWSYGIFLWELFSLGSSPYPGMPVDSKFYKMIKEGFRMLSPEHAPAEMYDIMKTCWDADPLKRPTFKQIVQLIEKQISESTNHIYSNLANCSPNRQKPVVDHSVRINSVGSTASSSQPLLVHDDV
# FLT3 = target: T1, FLT3; conditions: cited from earlier work
# [5] = target: Platelet-derived growth factor receptor alpha (PDGFRα) (Homo sapiens, UniProt P16234); conditions: cited from earlier work
# Sequence of Platelet-derived growth factor receptor alpha (PDGFRα) (P16234 593-954 limits assumed): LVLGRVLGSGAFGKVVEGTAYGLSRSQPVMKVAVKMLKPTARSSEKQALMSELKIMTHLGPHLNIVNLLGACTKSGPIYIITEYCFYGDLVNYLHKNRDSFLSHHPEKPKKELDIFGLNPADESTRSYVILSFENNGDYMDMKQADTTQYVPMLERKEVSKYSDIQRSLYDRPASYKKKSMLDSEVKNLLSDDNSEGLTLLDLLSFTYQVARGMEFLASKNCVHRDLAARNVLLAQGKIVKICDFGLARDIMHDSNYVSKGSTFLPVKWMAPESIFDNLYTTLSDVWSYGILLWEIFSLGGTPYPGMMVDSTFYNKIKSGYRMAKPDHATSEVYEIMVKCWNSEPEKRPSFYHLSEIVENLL
# PNPLA3 [6] = assay: RNA-seq of compound-treated primary human hepatocytes: PNPLA3 expression; type: cell-based
# Procedure: (§7) Cryopreserved hepatocytes were cultured in plating media for 16 hours, transferred to maintenance media for 4 hours. Cultured on serum-free media for 2 hours, then a compound was added. The hepatocytes were maintained on the serum-free media for 16 hours prior to gene expression analysis.
# as §6
# Compound stocks were prepared at 1000× final concentration and added in a 2-step dilution to the medium to reduce risk of a compound precipitating out of solution when added to the cells, and to ensure reasonable pipetting volumes. One at a time, each compound was first diluted 10-fold in warm (about 37° C.) modified maintenance medium (initial dilution=ID), mixed by vortexing, and the ID was diluted 100-fold into the cell culture (e.g. 5.1 μl into 1 well of a 24-well plate containing 0.5 mL medium). The plate was mixed by carefully swirling and after all wells were treated and returned to the incubator overnight. If desired, separate plates/wells were treated with vehicle-only controls and/or positive controls. If using multi-well plates, controls were included on each plate. After about 18 hours, cells were harvested for further analysis, e.g., ChIP-seq, RNA-seq, ATAC-seq, etc.
# The expression level of each gene was quantified with normalized FPKM (fragments per kilobase of exon per million mapped fragments). The differentially expressed genes were called using Cuffdiff v2.2.1 with q value <0.01 and log 2fold change >=1 or <=−1.
# RNA-seq was performed to determine the effects of the compounds on PNPLA3 expression in hepatocytes. Fold change was calculated by dividing the level of expression in the cell system that had been perturbed by the level of expression in an unperturbed system. Changes in expression having a p-value ≤0.05 were considered significant.
# [7] = In vivo compound testing in mice: body weight, organ weight, other liver genes; parameters: species or system mouse; conditions: 50 mg/kg once daily, four days
# Procedure: (§4) A group of 6 mice (C57BL/6J strain), 3 male and 3 female, were administered with a candidate compound once daily via oral gavage for four consecutive days. Mice were sacrificed 4 hours post-last dose on the fourth day. Organs including liver, spleen, kidney, adipose, plasma were collected. Mouse liver tissues were pulverized in liquid nitrogen and aliquoted into small microtubes. TRIzol (Invitrogen Cat #15596026) was added to the tubes to facilitate cell lysis from tissue samples. The TRIzol solution containing the disrupted tissue was then centrifuged and the supernatant phase was collected. Total RNA was extracted from the supernatant using Qiagen RNA Extraction Kit (Qiagen Cat #74182) and the target mRNA levels were analyzed using qRT-PCR.
# (§5) Candidate compounds were administered at an appropriate dose once daily to a group of wild-type mice consisting of 3 male and 3 female mice. Mice were sacrificed on the fourth day and liver tissue was collected and analyzed for PNPLA3 (or COL1A1) expression by qRT-PCR. […] When COL1A1 was analyzed, a stellate cell specific gene GFAP was used as a house-keeping control.
# PNPLA3 [8] = assay: In vivo compound testing in mice: PNPLA3 expression in liver (qRT-PCR); parameters: species or system mouse; conditions: wild-type mice, 50 mg/kg once daily oral gavage, four days
# Procedure: as §4, §5
# JNK = conditions: cited from earlier work
# [9] = tested on: PNPLA3 (I148M mutation), HepG2 cells; assay: qRT-PCR of mutant PNPLA3 expression in HepG2 cells; type: cell-based
# Procedure: HepG2 cells were plated in 24 well format at 100,000 cells per well in 500 μl DMEM. […] The following morning, the cells were harvested for RNA extraction.
# Candidate compounds were evaluated in a PNPLA3 mutant cell line HepG2 to test their effects on mutant PNPLA3 expression. The HepG2 cells have the I148M mutation in PNPLA3. Changes in PNPLA3 expression in HepG2 cells were analyzed with qRT-PCR. PNPLA3 mRNA levels were normalized to the geometric mean of two internal controls, GUSB and B2M.
# PNPLA3 [10] = assay: qRT-PCR of PNPLA3 expression in mouse hepatocytes; type: cell-based
# Procedure: Analysis of the fold changes in expression as measured by qRT-PCR were performed using the technique below. The control was DMSO, and the treatment was the selected compound (CPD). The internal control was GAPDH or B-Actin (or otherwise indicated), and the gene of interest is the target. First, the averages of the 4 conditions were calculated for normalization: DMSO:GAPDH, DMSO:Target, CPD: GAPDH, and CPD:Target. Next, the ΔCT of both control and treatment were calculated to normalize to internal control (GAPDH) using (DMSO:Target)−(DMSO:GAPDH)=ΔCT control and (CPD:Target)−(CPD: GAPDH)=ΔCT experimental. Then, the ΔΔCT was calculated by ΔCT experimental−ΔCT control.
# Compounds were tested at concentrations ranging from 0.01 μM to 50 μM. […] PNPLA3 levels were normalized to the level of a house keeping gene ACTB.
# COL1A1 [11] = assay: In vivo compound testing in mice: COL1A1 expression in liver (qRT-PCR); parameters: species or system mouse; conditions: wild-type mice, 50 mg/kg once daily oral gavage, four days, GFAP as house-keeping control
# Procedure: as §4, §5
# PNPLA5 = assay: RNA-seq of compound-treated primary human hepatocytes: PNPLA5 expression; type: cell-based
# Procedure: as §7, §6
# Compound stocks were prepared at 1000× final concentration and added in a 2-step dilution to the medium to reduce risk of a compound precipitating out of solution when added to the cells, and to ensure reasonable pipetting volumes. One at a time, each compound was first diluted 10-fold in warm (about 37° C.) modified maintenance medium (initial dilution=ID), mixed by vortexing, and the ID was diluted 100-fold into the cell culture (e.g. 5.1 μl into 1 well of a 24-well plate containing 0.5 mL medium). […]
# The expression level of each gene was quantified with normalized FPKM (fragments per kilobase of exon per million mapped fragments). […]
# Fold change was calculated by dividing the level of expression in the cell system that had been perturbed by the level of expression in an unperturbed system. […]
molecule,measurement,setting,value
Cc1cc(Nc2nc(N[C@@H](C)c3ncc(F)cn3)ncc2Cl)[nH]n1 [AZD1480],Effect on PNPLA3 expression in human hepatocytes,PNPLA3 [1],efficient downregulation
CN1CCN(S(=O)(=O)c2ccc(-c3cnc(N)c(C(=O)Nc4cccnc4)n3)cc2)CC1 [AZD2858],Effect on PNPLA3 mRNA levels in stellate cells,PNPLA3 [2],modestly decreased both PNPLA3 and COL1A1 in a dose dependent manner
same,Relative COLIA1 mRNA levels RQ,COL1A1 [3]; 1 μM,0.83
same,Relative COLIA1 mRNA levels RQ,COL1A1 [3]; 10 μM,0.72
same,Effect on COL1A1 expression in stellate cells,COL1A1 [3],modestly decreased both PNPLA3 and COL1A1 in a dose dependent manner
S=C(NCc1ccc2c(c1)OCO2)N1CCN(c2ncnc3c2oc2ccccc23)CC1 [Amuvatinib],IC50,[4],10 nM
same,IC50,FLT3,81 nM
same,IC50,[5],40 nM
same,"PNPLA3 expression, Fold change (Log 2) vs untreated",PNPLA3 [6],−0.52 Log 2
O=C1Nc2cc(Br)ccc2/C1=C1/Nc2ccccc2/C1=N\O [BIO],Effect on PNPLA3 mRNA levels in stellate cells,PNPLA3 [2],modestly decreased both PNPLA3 and COL1A1 in a dose dependent manner
same,Relative COLIA1 mRNA levels RQ,COL1A1 [3]; 1 μM,0.74
same,Relative COLIA1 mRNA levels RQ,COL1A1 [3]; 10 μM,0.59
same,Effect on COL1A1 expression in stellate cells,COL1A1 [3],modestly decreased both PNPLA3 and COL1A1 in a dose dependent manner
COc1nc(N)nc2c1ncn2[C@@H]1O[C@H](COP(=O)(N[C@@H](C)C(=O)OCC(C)(C)C)Oc2cccc3ccccc23)[C@@H](O)[C@@]1(C)O (stereo partly shown) [BMS-986094],"PNPLA3 expression, Fold change (Log 2) vs untreated",PNPLA3 [6],−0.69 Log 2
"N#CCNC(=O)c1ccc(-c2ccnc(Nc3ccc(N4CCOCC4)cc3)n2)cc1 [Momelotinib, N-(cyanomethyl)-4-{2-[4-(morpholin-4-yl)anilino]pyrimidin-4-yl}benzamide]","Animal body weight, organ weight, other liver genes such as albumin, ASGR1, HAMP1",[7],No change was observed
same,PNPLA3 expression in mouse liver,PNPLA3 [8],reduced PNPLA3 significantly
same,Effect on PNPLA3 mRNA levels in stellate cells,PNPLA3 [2],reduced PNPLA3 mRNA levels in stellate cells in a dose-dependent manner
same,Effect on COL1A1 expression in stellate cells,COL1A1 [3],did not alter COL1A1 expression
same,Effect on PNPLA3 expression in human hepatocytes,PNPLA3 [1],substantial decrease; also recorded: dose-dependent response
same,IC50,JNK,< 100 nM
same,Response of mutant PNPLA3 mRNA levels in HepG2 cells,[9],dose-dependent manner
CNS(=O)(=O)C[C@H]1CC[C@H](N(C)c2ncnc3[nH]ccc23)CC1 [Oclacitinib],Effect on PNPLA3 expression in human hepatocytes,PNPLA3 [1],efficient downregulation
COc1ccc(-c2cc3c(C)nc(N)nc3n([C@H]3CC[C@H](OCCO)CC3)c2=O)cn1 [PF-04691502],Relative PNPLA3 mRNA levels,PNPLA3 [10]; 1 μM,0.21 ± 0.10
C1=C/COCc2cc(ccc2OCCN2CCCC2)Nc2nccc(n2)-c2cccc(c2)COC/1 [Pacritinib],Effect on PNPLA3 expression in human hepatocytes,PNPLA3 [1],substantial decrease
"NS(=O)(=O)C#Cc1ccccc1 [Pifithrin-μ, 2-Phenylethynesulfonamide]","PNPLA3 expression, Fold change (Log 2) vs untreated",PNPLA3 [6],−0.68 Log 2
CCC(=O)N1CCN(c2ccc(-n3c(=O)ccc4cnc5ccc(-c6cnc7ccccc7c6)cc5c43)cc2C(F)(F)F)CC1 [Torin 1],Relative PNPLA3 mRNA levels RQ,PNPLA3 [2]; compound 0.01 μM,0.34
same,Relative PNPLA3 mRNA levels RQ,PNPLA3 [2]; compound 0.1 μM,0.65
same,Relative PNPLA3 mRNA levels RQ,PNPLA3 [2]; compound 1 μM,0.99
same,Relative PNPLA3 mRNA levels RQ,PNPLA3 [2]; compound 10 μM,2.39
same,Relative COL1A1 mRNA levels RQ,COL1A1 [3]; compound 0.01 μM,0.29
same,Relative COL1A1 mRNA levels RQ,COL1A1 [3]; compound 0.1 μM,0.41
same,Relative COL1A1 mRNA levels RQ,COL1A1 [3]; compound 1 μM,0.43
same,Relative COL1A1 mRNA levels RQ,COL1A1 [3]; compound 10 μM,0.36
same,Relative PNPLA3 mRNA levels,PNPLA3 [10]; 10 μM,0.53 ± 0.25
CNC(=O)Nc1ccc(-c2nc(N3CC4CCC(C3)O4)c3cnn(C4CCC5(CC4)OCCO5)c3n2)cc1 [WYE-125132],COL1A1 expression in mouse liver,COL1A1 [11],reduced COL1A1 expression
same,Effect on PNPLA3 mRNA levels in stellate cells,PNPLA3 [2],decreased both PNPLA3 and COL1A1 in HSCs in a dose-dependent manner
same,Effect on COL1A1 expression in stellate cells,COL1A1 [3],decreased both PNPLA3 and COL1A1 in HSCs in a dose-dependent manner
same,"PNPLA3 expression, Fold change (Log 2) vs untreated",PNPLA3 [6],−0.86 Log 2
CN1C(=O)c2sccc2N(C)c2nc(Nc3ccc(S(N)(=O)=O)cc3)ncc21 [XMU-MP-1],"PNPLA3 expression, Fold change (Log 2) vs untreated",PNPLA3 [6],−0.66 Log 2
Activin,Upregulation of PNPLA5 in the RNA-seq study,PNPLA5,best upregulators
same,Upregulation of PNPLA3 in the RNA-seq study,PNPLA3 [6],best upregulators
"GDF2 (BMP9) (protein, UniProt Q9UK05 320-429, looked up) Growth/differentiation factor …: SAGAGSHCQKTSLRVNFEDIGWDSWIIAPKEYEAYECKGGCFFPLADDVTPTKHAIVQTLVHLKFPTKVGKACCVPTKLSPISVLYKDDMGVPTLKYHYEGMSVAECGCR",Upregulation of PNPLA5 in the RNA-seq study,PNPLA5,best upregulators
same,Upregulation of PNPLA3 in the RNA-seq study,PNPLA3 [6],best upregulators
